What was measured:
[1] = target: T1, Solute carrier family 22 member 6 (Rattus norvegicus, UniProt O35956); test: TP_TRANSPORTER: inhibition of PAH uptake in Xenopus laevis oocytes; format: functional, cell-based, Oocyte
T1 sequence (O35956 whole entry): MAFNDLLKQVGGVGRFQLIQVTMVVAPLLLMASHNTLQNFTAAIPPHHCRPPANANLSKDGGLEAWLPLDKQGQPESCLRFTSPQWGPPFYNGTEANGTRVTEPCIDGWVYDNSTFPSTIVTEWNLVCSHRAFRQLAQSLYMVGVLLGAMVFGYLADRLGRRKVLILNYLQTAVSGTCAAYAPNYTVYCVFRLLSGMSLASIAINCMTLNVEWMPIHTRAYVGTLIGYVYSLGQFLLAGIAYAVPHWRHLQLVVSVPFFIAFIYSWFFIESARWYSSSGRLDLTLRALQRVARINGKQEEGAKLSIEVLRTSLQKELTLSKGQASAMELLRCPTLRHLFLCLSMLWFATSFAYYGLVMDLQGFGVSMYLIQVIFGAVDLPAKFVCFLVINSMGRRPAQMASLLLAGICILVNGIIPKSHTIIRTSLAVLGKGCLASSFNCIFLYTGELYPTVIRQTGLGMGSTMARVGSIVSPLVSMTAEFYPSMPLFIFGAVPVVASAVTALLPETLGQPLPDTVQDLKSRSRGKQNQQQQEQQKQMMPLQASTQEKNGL

[2] = target: T1, Solute carrier family 22 member 6; test: (§1) TP_TRANSPORTER: uptake in Xenopus laevis oocytes; format: functional, cell-based; details: oocyte
[3] = target: T2, Organic anion transporter 3 (Rattus norvegicus, UniProt Q9R1U7); test: as §1; format: functional, cell-based; details: oocyte
T2 sequence (Q9R1U7 whole entry): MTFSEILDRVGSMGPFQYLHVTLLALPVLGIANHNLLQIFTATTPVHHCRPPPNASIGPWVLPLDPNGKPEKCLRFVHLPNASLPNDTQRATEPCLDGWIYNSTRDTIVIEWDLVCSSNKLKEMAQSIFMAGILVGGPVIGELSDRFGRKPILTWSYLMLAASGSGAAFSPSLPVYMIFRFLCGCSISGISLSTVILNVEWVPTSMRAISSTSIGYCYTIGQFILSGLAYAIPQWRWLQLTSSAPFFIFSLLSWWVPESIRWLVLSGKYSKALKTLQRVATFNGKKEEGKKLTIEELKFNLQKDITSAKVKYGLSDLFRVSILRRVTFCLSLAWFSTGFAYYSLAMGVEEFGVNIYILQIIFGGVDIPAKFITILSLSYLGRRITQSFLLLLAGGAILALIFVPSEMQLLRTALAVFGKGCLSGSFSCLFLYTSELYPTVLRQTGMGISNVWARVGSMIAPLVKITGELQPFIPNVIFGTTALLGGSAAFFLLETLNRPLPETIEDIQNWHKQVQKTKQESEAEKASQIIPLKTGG

Row | Ki [1] [mM] | Km [2] [µM] | Activity [3] | Activity [2] | Molecule
1 | 2 |  |  |  | CC(=O)N[C@@H](CS)C(=O)O [ACETYLCYSTEINE]
2 |  | 31 | is not a substrate [-] |  | MeHg-NAC
3 |  |  | is not a substrate [-] | is not a substrate [-] | MeHg-glutathione
4 |  |  | is not a substrate [-] | is not a substrate [-] | MeHg-penicillamine

From ChEMBL document CHEMBL2074427, “Identification of a mechanism by which the methylmercury antidotes N-acetylcysteine and dimercaptopropanesulfonate enhance urinary metal excretion: transport by the renal organic anion transporter-1” (Mol Pharmacol, 2002)
